{"source": "patent US20040243224A1", "about": "“Methods and compositions for inhibiting narrowing in mammalian vascular pathways” (Medtronic Vascular, Inc., priority 2003, published 2004)", "origin": "cited, not measured here", "conditions_in_all_cases": "stated as known in the art, no data", "key": {"[1]": {"system": "Ustilago maydis"}, "[2]": {"system": "Tetrahymena furgasoni"}, "[3]": {"system": "laboratory tumor cell lines"}}}
{"smiles": "COc1cc(O)c2c(c1)[C@H]1O[C@@H]1C[C@H](O)[C@H](O)C(=O)/C=C\\C[C@H](C)OC2=O", "note": "[Hypothemycin, hypothemycin]", "values": [{"measurement": "activity against Ustilago maydis", "setting": "[1]", "result": "active"}, {"measurement": "activity against Tetrahymena furgasoni", "setting": "[2]", "result": "active"}, {"measurement": "anti-tumor activity on laboratory tumor cell lines", "setting": "[3]", "result": "exhibits anti-tumor activity"}]}
